Here are results for twelve molecules from patent publication US10125139B2, “Pesticidally active polycyclic derivatives with sulfur substituted five-membered ring heterocycles” (Syngenta Participations AG, priority 2015, dated 2018).

The test system of data set [1] is Plutella xylostella (Diamond Back Moth). The data set can be described thus: Example B8: Plutella xylostella, artificial diet, L2 larvae. The data set is classed as in vivo. Conditions: for percent effect (mortality or growth inhibition) at 200 ppm: Plutella xylostella, 120 h, application rate of 200 ppm, 5 days after infestation, L2 larvae, read-out: effect in at least one of the two categories (mortality or growth inhibition). Here is the method: Example B8: Plutella xylostella (Diamond Back Moth)
24-well microtiter plates with artificial diet were treated with aqueous test solutions prepared from 10,000 ppm DMSO stock solutions by pipetting. After drying, the plates were infested with L2 larvae (10 to 15 per well). The samples were assessed for mortality and growth inhibition in comparison to untreated samples 5 days after infestation. The following compounds gave an effect of at least 80% in at least one of the two categories (mortality or growth inhibition) at an application rate of 200 ppm:
(§1) Insecticidal action against Diabrotica balteata (Corn root worm), Plutella xylostella (Diamond black moth), and Spodoptera littoralis (Egyptian cotton leaf worm). The tests were carried out as described in biological examples B2, B8 and B9, respectively, with the larval feeding/contact activity (mortality only) being reported as Breakpoint (BP80) values in parts per million (i.e. the lowest concentration which gives 80% larval mortality).

Data set [2] has as its system Myzus persicae (Green Peach Aphid). The data set is described as follows: Example B5: Myzus persicae feeding/contact activity, sunflower leaf discs. Type of data set: in vivo. Conditions: foliar, 144 h, application rate of 200 ppm, 6 days after infestation. Here is the method: Example B5: Myzus persicae (Green Peach Aphid): Feeding/Contact Activity
Sunflower leaf discs were placed onto agar in a 24-well microtiter plate and sprayed with aqueous test solutions prepared from 10,000 ppm DMSO stock solutions. After drying, the leaf discs were infested with an aphid population of mixed ages. The samples were assessed for mortality 6 days after infestation.

In data set [3] the test system is Frankliniella occidentalis (Western Flower thrips). The data set can be described thus: Example B4: Frankliniella occidentalis feeding/contact activity, sunflower leaf discs. The data set is classed as in vivo. Conditions: foliar, 168 h, application rate of 200 ppm, 7 days after infestation, population of mixed ages. Here is the method:
Example B4: Frankliniella occidentalis (Western Flower thrips): Feeding/Contact Activity
Sunflower leaf discs were placed on agar in 24-well microtiter plates and sprayed with aqueous test solutions prepared from 10,000 DMSO stock solutions. After drying the leaf discs were infested with a Frankliniella population of mixed ages. The samples were assessed for mortality 7 days after infestation.

The test system of data set [4] is Bemisia tabaci (Cotton White Fly). The data set is described as follows: Example B1: Bemisia tabaci feeding/contact activity, cotton leaf discs. Type of data set: in vivo. The settings on record: foliar, 144 h, application rate of 200 ppm, 6 days after incubation, adult white flies. Here is the method:
Example B1: Bemisia tabaci (Cotton White Fly): Feeding/Contact Activity
Cotton leaf discs were placed on agar in 24-well microtiter plates and sprayed with aqueous test solutions prepared from 10,000 ppm DMSO stock solutions. After drying the leaf discs were infested with adult white flies. The samples were checked for mortality 6 days after incubation.

In data set [5] the test system is Euschistus heros (Neotropical Brown Stink Bug). The data set can be described thus: Example B3: Euschistus heros, sprayed soybean leaves, N2 nymphs. The data set is classed as in vivo. The settings on record: 120 h, application rate of 200 ppm, 5 days after infestation, read-out: effect in at least one of the two categories (mortality or growth inhibition). Here is the method:
Example B3: Euschistus heros (Neotropical Brown Stink Bug)
Soybean leaves on agar in 24-well microtiter plates were sprayed with aqueous test solutions prepared from 10,000 ppm DMSO stock solutions. After drying the leaves were infested with N2 nymphs. The samples were assessed for mortality and growth inhibition in comparison to untreated samples 5 days after infestation. The following compounds gave an effect of at least 80% in at least one of the two categories (mortality or growth inhibition) at an application rate of 200 ppm: […]

In data set [6] the test system is Diabrotica balteata (Corn Root Worm). The data set is described as follows: Example B2: Diabrotica balteata, sprayed maize sprouts, L2 larvae. The data set is classed as in vivo. The settings on record: for percent effect (mortality or growth inhibition) at 200 ppm: Diabrotica balteata, 96 h, application rate of 200 ppm, 4 days after infestation, L2 larvae, read-out: effect in at least one of the two categories (mortality or growth inhibition). Here is the method: Example B2: Diabrotica balteata (Corn Root Worm)
Maize sprouts placed onto an agar layer in 24-well microtiter plates were treated with aqueous test solutions prepared from 10,000 ppm DMSO stock solutions by spraying. After drying, the plates were infested with L2 larvae (6 to 10 per well). The samples were assessed for mortality and growth inhibition in comparison to untreated samples 4 days after infestation. The following compounds gave an effect of at least 80% in at least one of the two categories (mortality or growth inhibition) at an application rate of 200 ppm:
as §1

The test system of data set [7] is Spodoptera littoralis (Egyptian Cotton Leaf Worm). The data set is described as follows: Example B9: Spodoptera littoralis, cotton leaf discs, L1 larvae. The settings on record: for percent control (mortality, anti-feedant effect or growth inhibition) at 200 ppm: Spodoptera littoralis, foliar, 72 h, application rate of 200 ppm, 3 days after infestation, L1 larvae. Type of data set: in vivo. Here is the method:
Example B9: Spodoptera littoralis (Egyptian Cotton Leaf Worm)
Cotton leaf discs were placed onto agar in 24-well microtiter plates and sprayed with aqueous test solutions prepared from 10,000 ppm DMSO stock solutions. After drying the leaf discs were infested with five L1 larvae. The samples were assessed for mortality, anti-feeding effect, and growth inhibition in comparison to untreated samples 3 days after infestation. Control of Spodoptera littoralis by a test sample is given when at least one of the categories mortality, anti-feedant effect, and growth inhibition is higher than the untreated sample.
as §1

Data set [8] concerns Thrips tabaci (Onion thrips). The data set is described as follows: Example B12: Thrips tabaci feeding/contact activity, sunflower leaf discs. Type of data set: in vivo. Conditions: foliar, 144 h, application rate of 200 ppm, 6 days after infestation. Here is the method:
Example B12: Thrips tabaci (Onion thrips) Feeding/Contact Activity
Sunflower leaf discs were placed on agar in 24-well microtiter plates and sprayed with aqueous test solutions prepared from 10,000 ppm DMSO stock solutions. After drying the leaf discs were infested with a thrips population of mixed ages. The samples were assessed for mortality 6 days after infestation.

For data set [9], the system named is Spodoptera littoralis (Egyptian Cotton Leaf Worm). The data set is described as follows: Example B10: Spodoptera littoralis systemic activity, lettuce grown on treated agar. The data set is classed as in vivo. Conditions: 144 h, test rate of 12.5 ppm, 6 days after infestation, read-out: effect in at least one of the three categories (mortality, anti-feeding, or growth inhibition). An excerpt: Example B10: Spodoptera littoralis (Egyptian Cotton Leaf Worm) Systemic Activity
Test compounds were applied by pipette from 10,000 ppm DMSO stock solutions into 24-well plates and mixed with agar. Lettuce seeds were placed onto the agar and the multi well plate was closed by another plate which contained also agar. After 7 days the compound was absorbed by the roots and the lettuce grew into the lid plate. The lettuce leaves were then cut off into the lid plate. Spodoptera eggs were pipetted through a plastic stencil onto a humid gel blotting paper and the lid plate was closed with it. The samples were assessed for mortality, anti-feedant effect and growth inhibition in comparison to untreated samples 6 days after infestation. The following compounds gave an effect of at least 80% in at least one of the three categories (mortality, anti-feeding, or growth inhibition) at a test rate of 12.5 ppm: […]

What is called melting point is the temperature of the solid-liquid transition. `CCSc1nc(-c2ncccn2)sc1-c1nc2cc(C(F)(F)F)ncc2n1C` [Example P-11] gave a melting point of 230 to 232 °C.
The term mortality denotes the share of the test organisms that died. With `CCS(=O)(=O)c1cc(-c2ccc(Cl)cc2)sc1-c1nc2cc(C(F)(F)F)nnc2n1C` [Example P-18, 6-[5-(4-chlorophenyl)-3-ethylsulfonyl-2-thienyl]-7-methyl-3-(trifluoromethyl)imidazo[4,5-c]pyridazine], the percent effect (mortality or growth inhibition) at 200 ppm in [1], in [5] and in data set [6] was not below 80% in each case. In addition, the mortality at 200 ppm in [2], in data set [3], in data set [4] and in [8] was not below 80% each time. This molecule also gave a percent control (mortality, anti-feedant effect or growth inhibition) at 200 ppm in data set [7] not below 80%. The percent effect (mortality, anti-feeding or growth inhibition) at 12.5 ppm in data set [9] is not below 80%.
With `CCSc1cc(I)sc1-c1nc2cc(C(F)(F)F)ncc2n1C` [Example I-12, 2-(3-ethylsulfanyl-5-iodo-2-thienyl)-3-methyl-6-(trifluoromethyl)imidazo[4,5-c]pyridine], the melting point was in the range of 61 to 63 °C.
Regarding `CCS(=O)(=O)c1cc(-c2ccc(Cl)cc2)sc1-c1nc2cc(C(F)(F)F)ncc2n1C` [Example P-5, 2-[5-(4-chlorophenyl)-3-ethylsulfonyl-2-thienyl]-3-methyl-6-(trifluoromethyl)imidazo[4,5-c]pyridine], the percent effect (mortality or growth inhibition) at 200 ppm in [1], in [5] and in [6] was not below 80% each time. Further, the mortality at 200 ppm in data set [2], in data set [3], in [4] and in data set [8] was not below 80% each time. The molecule also came in with a percent control (mortality, anti-feedant effect or growth inhibition) at 200 ppm in data set [7] not below 80%. Also, the percent effect (mortality, anti-feeding or growth inhibition) at 12.5 ppm in [9] is not below 80%.
The molecule `CCS(=O)(=O)c1ncsc1-c1nc2cc(C(F)(F)F)ncc2n1C` [Example I-2] gave a melting point of 169 to 171 °C.
Regarding `CCS(=O)(=O)c1cc(-c2ccc(Cl)cc2)sc1-c1nc2cc(SC(F)(F)F)ncc2n1C` [Example P-15], the percent effect (mortality or growth inhibition) at 200 ppm in data set [1], in [5] and in data set [6] was not below 80% each time. For the same molecule, the mortality at 200 ppm in data set [2], in data set [3], in [4] and in data set [8] was not below 80% throughout. This molecule also displayed a percent control (mortality, anti-feedant effect or growth inhibition) at 200 ppm in [7] not below 80%. For the same molecule, in [9], the percent effect (mortality, anti-feeding or growth inhibition) at 12.5 ppm is not below 80%.
Consider `CCS(=O)(=O)c1cc(-c2ccc(C(F)(F)F)cc2)sc1-c1nc2cc(C(F)(F)F)ncc2n1C` [Example P-1, 2-[3-ethylsulfonyl-5-[4-(trifluoromethyl)phenyl]-2-thienyl]-3-methyl-6-(trifluoromethyl)imidazo[4,5-c]pyridine], for which the percent effect (mortality or growth inhibition) at 200 ppm in data set [1], in data set [5] and in data set [6] was not below 80% throughout. Further, in data set [1] (larval feeding/contact activity, mortality only, test as in B8), the “BP80 (Breakpoint, lowest concentration which gives 80% larval mortality) Plutella xylostella” value was found to be 0.8 ppm. This molecule displayed a mortality at 200 ppm in [2] not below 80%. In addition, in data set [6] (larval feeding/contact activity, mortality only, test as in B2), the “BP80 (Breakpoint, lowest concentration which gives 80% larval mortality) Diabrotica balteata” value worked out at 0.8 ppm. The molecule also gave a percent control (mortality, anti-feedant effect or growth inhibition) at 200 ppm in [7] not below 80%. For the same molecule, in [7] (larval feeding/contact activity, mortality only, test as in B9), the “BP80 (Breakpoint, lowest concentration which gives 80% larval mortality) Spodoptera littoralis” value is 0.8 ppm. Also, the percent effect (mortality, anti-feeding or growth inhibition) at 12.5 ppm in data set [9] is not below 80%.
As to `CCS(=O)(=O)c1cc(I)sc1-c1nc2cc(C(F)(F)F)nnc2n1C` [Example I-6, 6-(3-ethylsulfonyl-5-iodo-2-thienyl)-7-methyl-3-(trifluoromethyl)imidazo[4,5-c]pyridazine], the percent effect (mortality or growth inhibition) at 200 ppm in data set [1] and in data set [6] was not below 80% in each case. In [7], this molecule showed a percent control (mortality, anti-feedant effect or growth inhibition) at 200 ppm not below 80%. Moreover, the percent effect (mortality, anti-feeding or growth inhibition) at 12.5 ppm in data set [9] was not below 80%.
The molecule `CCS(=O)(=O)c1nc(Br)sc1-c1nc2cc(C(F)(F)F)ncc2n1C` [Example I-4, 2-bromo-4-ethylsulfonyl-5-[3-methyl-6-(trifluoromethyl)imidazo[4,5-c]pyridin-2-yl]thiazole] gave a melting point of 248 to 250 °C.
For `CCS(=O)(=O)c1nc(-c2ccc(Cl)cc2)sc1-c1nc2cc(C(F)(F)F)ncc2n1C` [Example P-4, 2-(4-chlorophenyl)-4-ethylsulfonyl-5-[3-methyl-6-(trifluoromethyl)imidazo[4,5-c]pyridin-2-yl]thiazole], the percent effect (mortality or growth inhibition) at 200 ppm in [1], in [5] and in data set [6] was not below 80% each time. Besides, the mortality at 200 ppm in data set [2], in data set [3] and in data set [4] was not below 80% throughout. The molecule further yielded a percent control (mortality, anti-feedant effect or growth inhibition) at 200 ppm in data set [7] not below 80%. For the same molecule, in [9], the percent effect (mortality, anti-feeding or growth inhibition) at 12.5 ppm is not below 80%.
`CCS(=O)(=O)c1nc(-n2ccc(C(F)(F)F)n2)sc1-c1nc2cc(C(F)(F)F)ncc2n1C` [Example P-10, 4-ethylsulfonyl-5-[3-methyl-6-(trifluoromethyl)imidazo[4,5-c]pyridin-2-yl]-2-[3-(trifluoromethyl)pyrazol-1-yl]thiazole]: the mortality at 200 ppm in [2], in data set [3], in data set [4] and in [8] was not below 80% throughout. Moreover, the percent effect (mortality or growth inhibition) at 200 ppm in [5] and in data set [6] was not below 80% each time. The same molecule returned a percent control (mortality, anti-feedant effect or growth inhibition) at 200 ppm in data set [7] not below 80%. Besides, in data set [9], the percent effect (mortality, anti-feeding or growth inhibition) at 12.5 ppm is not below 80%.
The molecule `CCSc1cc(-c2ccc(Cl)cc2)sc1-c1nc2cc(C(F)(F)F)nnc2n1C` [Example P-17, 6-[5-(4-chlorophenyl)-3-ethylsulfanyl-2-thienyl]-7-methyl-3-(trifluoromethyl)imidazo[4,5-c]pyridazine] came in with a melting point of 205 to 207 °C.
